Data as given in US10183914B2 (BAYER CROPSCIENCE AKTIENGESELLSCHAFT, priority 2014, dated 2019).

Key:
Viola tricolor = assay: Pre-emergence herbicidal effect; type: in vivo; conditions: 3 weeks
In short: (§1)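 Percent herbicidal effect or crop damage, judged visually 3 weeks after surface treatment of soil-covered seeds. Treatment used WP or EC formulations diluted in water, 600 to 800 L/ha, plus 0.2% wetting agent.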

Avena fatua = assay: Pre-emergence herbicidal effect; type: in vivo; conditions: 3 weeks
In short: as §1

Setaria viridis [1] = assay: Pre-emergence herbicidal effect; type: in vivo; conditions: 3 weeks
In short: as §1

Echinochloa crus-galli [2] = assay: Pre-emergence herbicidal effect; type: in vivo; conditions: 3 weeks
In short: as §1

Abutilon theophrasti = assay: Pre-emergence herbicidal effect; type: in vivo; conditions: 3 weeks
In short: as §1

Stellaria media = assay: Pre-emergence herbicidal effect; type: in vivo; conditions: 3 weeks
In short: as §1

Polygonum convolvulus = assay: Pre-emergence herbicidal effect; type: in vivo; conditions: 3 weeks
In short: as §1

Lolium multiflorum [3] = assay: Pre-emergence herbicidal effect; type: in vivo; conditions: 3 weeks
In short: as §1

Veronica persica = assay: Pre-emergence herbicidal effect; type: in vivo; conditions: 3 weeks
In short: as §1

Amaranthus retroflexus = assay: Pre-emergence herbicidal effect; type: in vivo; conditions: 3 weeks
In short: as §1

Alopecurus myosuroides [4] = assay: Pre-emergence herbicidal effect; type: in vivo; conditions: 3 weeks
In short: as §1

Matricaria inodora = assay: Pre-emergence herbicidal effect; type: in vivo; conditions: 3 weeks
In short: as §1

Ipomoea purpurea = assay: Pre-emergence herbicidal effect; type: in vivo; conditions: 3 weeks
In short: as §1

[5] = logp (HCOOH), physicochemical characterization
Oryza sativa [6] = assay: Post-emergence herbicidal effect and crop plant compatibility; type: in vivo; conditions: visual scoring after about 3 weeks
In short: (§2)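 Efficacy is a visual percentage score taken roughly 3 weeks after spraying, where 100% means the plants died and 0% means they look like untreated controls. Foliar application was made at the one-leaf stage using WP or EC formulations with 0.2% wetting agent.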

Zea mays [7] = assay: Pre-emergence herbicidal effect and crop plant compatibility; type: in vivo; conditions: 3 weeks
In short: as §1

Oryza sativa [8] = assay: as above; type: in vivo; conditions: 3 weeks
In short: as §1

Setaria viridis [9] = assay: Post-emergence herbicidal effect; type: in vivo; conditions: 320 g/ha (dose by row order of upper half), scoring after about 3 weeks
Method: (§3) Seeds of monocotyledonous and dicotyledonous weed and crop plants are laid out in sandy loam in wood-fiber pots, covered with soil and cultivated in a greenhouse under good growth conditions. 2 to 3 weeks after sowing, the test plants are treated at the one-leaf stage. The compounds of the invention, formulated in the form of wettable powders (WP) or as emulsion concentrates (EC), are then sprayed onto the green parts of the plants as aqueous suspension or emulsion at a water application rate equating to 600 to 800 L/ha with addition of 0.2% wetting agent. After the trial plants have been left to stand in a greenhouse under optimal growth conditions for about 3 weeks, the efficacy of the formulations is scored visually in comparison to untreated controls (herbicidal action in percent (%): 100% efficacy=the plants have died, 0% efficacy=like control plants).

Echinochloa crus-galli [10] = assay: Post-emergence herbicidal effect; type: in vivo; conditions: 320 g/ha, visual scoring after about 3 weeks
Method: as §3

Lolium multiflorum [11] = assay: Post-emergence herbicidal effect; type: in vivo; conditions: visual scoring after about 3 weeks
Method: as §3

Cyperus esculentus = assay: Pre-emergence herbicidal effect; type: in vivo; conditions: 3 weeks
In short: as §1

Zea mays [12] = assay: Post-emergence herbicidal effect and crop plant compatibility; type: in vivo; conditions: visual scoring after about 3 weeks
In short: as §2

[13] = test system: Triticum aestivum (spring); assay: as above; type: in vivo; conditions: visual scoring after about 3 weeks
In short: as §2

[14] = test system: Triticum aestivum (spring); assay: Pre-emergence herbicidal effect and crop plant compatibility; type: in vivo; conditions: 3 weeks
In short: as §1

Alopecurus myosuroides [15] = assay: Post-emergence herbicidal effect; type: in vivo; conditions: 320 g/ha, visual scoring after about 3 weeks
Method: as §3

Row | Compound | VIOTR herbicidal activity in percent (Viola tricolor; 1280 g/ha) [%] | STEME herbicidal activity in percent (Stellaria media; 1280 g/ha) [%] | VERPE herbicidal activity in percent (Veronica persica; 1280 g/ha) [%] | AMARE herbicidal activity in percent (Amaranthus retroflexus; 1280 g/ha) [%] | PHBPU herbicidal activity in percent (Ipomoea purpurea; 1280 g/ha) [%] | post-emergence efficacy ORYSA (Oryza sativa [6]; 320 g/ha) [%] | ZEAMX herbicidal activity in percent (Zea mays [7]; 320 g/ha) [%] | VIOTR herbicidal activity in percent (Viola tricolor; 320 g/ha) [%] | AVEFA herbicidal activity in percent (Avena fatua; 320 g/ha) [%] | SETVI herbicidal activity in percent (Setaria viridis [1]; 320 g/ha) [%] | ECHCG herbicidal activity in percent (Echinochloa crus-galli [2]; 320 g/ha) [%] | ABUTH herbicidal activity in percent (Abutilon theophrasti; 320 g/ha) [%] | STEME herbicidal activity in percent (Stellaria media; 320 g/ha) [%] | POLCO herbicidal activity in percent (Polygonum convolvulus; 320 g/ha) [%] | LOLMU herbicidal activity in percent (Lolium multiflorum [3]; 320 g/ha) [%] | VERPE herbicidal activity in percent (Veronica persica; 320 g/ha) [%] | AMARE herbicidal activity in percent (Amaranthus retroflexus; 320 g/ha) [%] | ALOMY herbicidal activity in percent (Alopecurus myosuroides [4]; 320 g/ha) [%] | MATIN herbicidal activity in percent (Matricaria inodora; 320 g/ha) [%] | logp (HCOOH) [5] | other results
1 | CC(=O)c1cnc(NC2CCOc3ccccc32)nc1C (stereo not shown) [1.83, 1-[2-(3,4-Dihydro-2H-chromen-4-ylamino)-4-methylpyrimidin-5-yl]ethanone] | 100 | 100 | 100 | 100 | 100 | – | – | – | – | – | – | – | – | – | – | – | – | – | – | – | AVEFA herbicidal activity in percent (Avena fatua; 1280 g/ha): 90%; SETVI herbicidal activity in percent (Setaria viridis [1]; 1280 g/ha): 100%; ECHCG herbicidal activity in percent (Echinochloa crus-galli [2]; 1280 g/ha): 100%; ABUTH herbicidal activity in percent (Abutilon theophrasti; 1280 g/ha): 100%; POLCO herbicidal activity in percent (Polygonum convolvulus; 1280 g/ha): 100%; LOLMU herbicidal activity in percent (Lolium multiflorum [3]; 1280 g/ha): 100%; ALOMY herbicidal activity in percent (Alopecurus myosuroides [4]; 1280 g/ha): 100%; MATIN herbicidal activity in percent (Matricaria inodora; 1280 g/ha): 100%; chromatographic logP ([5]; HCOOH (formic acid)): 2.44
2 | O=C1CCCc2nc(NC3CCc4ccccc43)ncc21 (racemic) [2.91] | – | – | – | – | – | 0 | 20 | 100 | 80 | 100 | 100 | 100 | 100 | 80 | 100 | 100 | 100 | 90 | 100 | oily; logp (HCOOH): 2.62; 1H-NMR (CDCl3, 400 MHZ, δ in ppm): 1.25 (m, 1H, 1H | ORYSA herbicidal activity in percent (Oryza sativa [8]; 320 g/ha): 20%; PHBPU herbicidal activity in percent (Ipomoea purpurea; 320 g/ha): 100%; post-emergence efficacy SETVI (Setaria viridis [9]): 90%; post-emergence efficacy ECHCG (Echinochloa crus-galli [10]): 100%; post-emergence efficacy LOLMU (Lolium multiflorum [11]; 320 g/ha): 100%
3 | CC(=O)c1cnc(N[C@@H]2CCOc3ccccc32)nc1 [1.4] | – | – | – | – | – | – | – | 100 | 100 | 90 | 90 | – | 100 | 100 | – | 100 | 100 | 100 | 100 | oily; logp (HCOOH): 2.03; 1H-NMR (CDCL3, 400 MHZ, δ in ppm): 2.15 (m, 1H, 1H | VIOTR herbicidal activity in percent (Viola tricolor; 80 g/ha): 100%; AVEFA herbicidal activity in percent (Avena fatua; 80 g/ha): 100%; STEME herbicidal activity in percent (Stellaria media; 80 g/ha): 90%; POLCO herbicidal activity in percent (Polygonum convolvulus; 80 g/ha): 100%; VERPE herbicidal activity in percent (Veronica persica; 80 g/ha): 100%; CYPES herbicidal activity in percent (Cyperus esculentus; 80 g/ha): 80%; CYPES herbicidal activity in percent (Cyperus esculentus; 320 g/ha): 100%; AMARE herbicidal activity in percent (Amaranthus retroflexus; 80 g/ha): 100%; ALOMY herbicidal activity in percent (Alopecurus myosuroides [4]; 80 g/ha): 100%; MATIN herbicidal activity in percent (Matricaria inodora; 80 g/ha): 100%; PHBPU herbicidal activity in percent (Ipomoea purpurea; 320 g/ha): 100%
4 | Cc1ccc2c(c1)[C@H](Nc1ncc3c(n1)CC(C(F)(F)F)CC3=O)[C@@H](C)C2 (stereo partly shown) [2.46] | – | – | – | – | – | 20 | 0 | 100 | – | 90 | 100 | 80 | 100 | 100 | 100 | 100 | 100 | 90 | 100 | oily; logp (HCOOH): 3.24; 1H-NMR (CDCl3, 400 MHZ, δ in ppm): 1.25 (t, 3H, CH3); | post-emergence efficacy ZEAMX (Zea mays [12]; 80 g/ha): 0%; post-emergence efficacy ZEAMX (Zea mays [12]; 320 g/ha): 0%; post-emergence efficacy TRZAS ([13]; 80 g/ha): 10%; post-emergence efficacy TRZAS ([13]; 320 g/ha): 10%; post-emergence efficacy ORYSA (Oryza sativa [6]; 80 g/ha): 10%; ZEAMX herbicidal activity in percent (Zea mays [7]; 80 g/ha): 0%; TRZAS herbicidal activity in percent ([14]; 80 g/ha): 0%; TRZAS herbicidal activity in percent ([14]; 320 g/ha): 0%; VIOTR herbicidal activity in percent (Viola tricolor; 80 g/ha): 100%; SETVI herbicidal activity in percent (Setaria viridis [1]; 80 g/ha): 90%; ECHCG herbicidal activity in percent (Echinochloa crus-galli [2]; 80 g/ha): 90%; STEME herbicidal activity in percent (Stellaria media; 80 g/ha): 100%; LOLMU herbicidal activity in percent (Lolium multiflorum [3]; 80 g/ha): 100%; VERPE herbicidal activity in percent (Veronica persica; 80 g/ha): 100%; AMARE herbicidal activity in percent (Amaranthus retroflexus; 80 g/ha): 90%; ALOMY herbicidal activity in percent (Alopecurus myosuroides [4]; 80 g/ha): 90%; MATIN herbicidal activity in percent (Matricaria inodora; 80 g/ha): 90%; post-emergence efficacy LOLMU (Lolium multiflorum [11]; 80 g/ha): 80%; post-emergence efficacy LOLMU (Lolium multiflorum [11]; 320 g/ha): 100%; post-emergence efficacy ALOMY (Alopecurus myosuroides [15]): 100%
5 | O=C1CC(c2ccccc2F)Cc2nc(N[C@@H]3CCCc4ccccc43)ncc21 (stereo partly shown) [2.93] | 80 | 100 | 100 | 80 | 90 | – | – | – | – | – | – | – | – | – | – | – | – | – | – | oily; logp (HCOOH): 4.38; 1H-NMR (CDCl3, 400 MHZ, δ in ppm): 1.95 (m, 3H, 2H | ZEAMX herbicidal activity in percent (Zea mays [7]; 1280 g/ha): 0%; TRZAS herbicidal activity in percent ([14]; 1280 g/ha): 0%; ORYSA herbicidal activity in percent (Oryza sativa [8]; 1280 g/ha): 20%; CYPES herbicidal activity in percent (Cyperus esculentus; 1280 g/ha): 100%
